Test results from US10131652B2, “Pyrimidinyloxy benzene derivatives as herbicides” (E. I. DU PONT DE NEMOURS AND COMPANY, priority 2014, dated 2018).

Assays:
Assay in all cases: Test D pre-/postemergence plant response
Format in all cases: in vivo
[1] = test system: velvetleaf (Abutilon theophrasti); settings: Postemergence
Outline: (§1)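 0 = no effect, 100 = complete control: plants were scored this way by visual comparison with controls 13 to 15 days post-treatment. Application was preemergence to sown loam/sand pots or postemergence to 2–18 cm seedlings in peat-based mix.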

[2] = test system: blackgrass (Alopecurus myosuroides); settings: Postemergence; for Plant response rating, Blackgrass: scale 0 to 100, 0 no effect, 100 complete control
Outline: as §1

[3] = test system: ragweed (common ragweed, Ambrosia elatior); settings: Postemergence
Outline: as §1

[4] = test system: pigweed (Amaranthus retroflexus); settings: Postemergence
Outline: as §1

[5] = test system: johnsongrass (Sorghum halepense); settings: Postemergence; for Plant response rating, Johnsongrass: scale 0 to 100, 0 no effect, 100 complete control
Outline: as §1

[6] = test system: morningglory (Ipomoea coccinea); settings: Postemergence
Outline: as §1

[7] = test system: large (Lg) crabgrass (Digitaria sanguinalis); settings: Postemergence; for Plant response rating, Crabgrass, Large: scale 0 to 100, 0 no effect, 100 complete control
Outline: as §1

soybean (Glycine max) = settings: Postemergence
Outline: as §1

[8] = test system: oilseed rape (Brassica napus); settings: Postemergence
Outline: as §1

[9] = test system: winter wheat (Triticum aestivum); settings: Postemergence
Outline: as §1

[10] = test system: Italian ryegrass (Lolium multiflorum); settings: Postemergence
Outline: as §1

[11] = test system: yellow nutsedge (Cyperus esculentus); settings: Postemergence
Outline: as §1

corn (Zea mays) = settings: Postemergence; for Plant response rating, Corn: scale 0 to 100, 0 no effect, 100 complete control
Outline: as §1

[12] = test system: barnyardgrass (Echinochloa crus-galli); settings: Postemergence; for Plant response rating, Barnyardgrass: scale 0 to 100, 0 no effect, 100 complete control
Outline: as §1

[13] = test system: lambsquarters (Chenopodium album); settings: Postemergence
Outline: as §1

[14] = test system: giant foxtail (Setaria faberii); settings: Postemergence; for Plant response rating, Foxtail, Giant: scale 0 to 100, 0 no effect, 100 complete control
Outline: as §1

[15] = test system: waterhemp (common waterhemp, Amaranthus rudis); settings: Postemergence
Outline: as §1

[16] = test system: galium (catchweed bedstraw, Galium aparine); settings: Postemergence; for Plant response rating, Galium: scale 0 to 100, 0 no effect, 100 complete control
Outline: as §1

[17] = 31 g ai/ha, scale 0 to 100 (0 no effect, 100 complete control)
[18] = 62 g ai/ha, scale 0 to 100, 0 no effect, 100 complete control
[19] = 125 g ai/ha, scale 0 to 100, 0 no effect, 100 complete control

FCc1cc(-c2ccccc2Oc2ncc(Cl)cn2)on1 [Compound 224]
25: Velvetleaf plant response rating [1, 17]
65: Soybean plant response rating (soybean (Glycine max); [18])
10: Plant response rating (scale 0 to 100), Velvetleaf ([1]; 16 g ai/ha) | Plant response rating, Crabgrass, Large ([7]; 62 g ai/ha) | Plant response rating, Crabgrass, Large ([7]; 125 g ai/ha) | Oilseed Rape plant response rating [8, 17] | Plant response rating, Barnyardgrass ([12]; 62 g ai/ha)
70: Plant response rating, Ragweed [3, 19] | Plant response rating (scale 0 to 100), Waterhemp ([15]; 16 g ai/ha)
15: Plant response rating (scale 0 to 100), Morningglory ([6]; 16 g ai/ha) | Plant response rating, Wheat [9, 19] | Plant response rating, Barnyardgrass ([12]; 125 g ai/ha)
5: Plant response rating, Blackgrass ([2]; 62 g ai/ha) | Plant response rating (scale 0 to 100), Johnsongrass ([5]; 16 g ai/ha) | Johnsongrass plant response rating [5, 17] | Plant response rating, Johnsongrass ([5]; 62 g ai/ha) | Plant response rating, Johnsongrass ([5]; 125 g ai/ha) | Plant response rating (scale 0 to 100), Crabgrass, Large ([7]; 16 g ai/ha) | Crabgrass, Large plant response rating [7, 17] | Nutsedge, Yellow plant response rating [11, 18] | Plant response rating, Nutsedge, Yellow [11, 19] | Corn plant response rating (corn (Zea mays); [17]) | Plant response rating, Corn (corn (Zea mays); 62 g ai/ha) | Plant response rating, Corn (corn (Zea mays); 125 g ai/ha) | Plant response rating (scale 0 to 100), Barnyardgrass ([12]; 16 g ai/ha) | Barnyardgrass plant response rating [12, 17] | Foxtail, Giant plant response rating [14, 17] | Plant response rating, Foxtail, Giant ([14]; 62 g ai/ha)
90: Plant response rating, Pigweed [4, 19]
55: Ragweed plant response rating [3, 17] | Ragweed plant response rating [3, 18] | Plant response rating (scale 0 to 100), Lambsquarters ([13]; 16 g ai/ha)
60: Plant response rating, Velvetleaf [1, 19] | Plant response rating, Galium ([16]; 62 g ai/ha) | Plant response rating, Galium ([16]; 125 g ai/ha)
75: Plant response rating, Soybean (soybean (Glycine max); [19]) | Lambsquarters plant response rating [13, 17] | Waterhemp plant response rating [15, 17]
0: Plant response rating (scale 0 to 100), Blackgrass ([2]; 16 g ai/ha) | Blackgrass plant response rating [2, 17] | Plant response rating, Blackgrass ([2]; 125 g ai/ha) | Plant response rating (scale 0 to 100), Oilseed Rape ([8]; 16 g ai/ha) | Plant response rating (scale 0 to 100), Wheat ([9]; 16 g ai/ha) | Wheat plant response rating [9, 17] | Wheat plant response rating [9, 18] | Plant response rating (scale 0 to 100), Ryegrass, Italian ([10]; 16 g ai/ha) | Ryegrass, Italian plant response rating [10, 17] | Ryegrass, Italian plant response rating [10, 18] | Plant response rating, Ryegrass, Italian [10, 19] | Plant response rating (scale 0 to 100), Nutsedge, Yellow ([11]; 16 g ai/ha) | Nutsedge, Yellow plant response rating [11, 17] | Plant response rating (scale 0 to 100), Corn (corn (Zea mays); 16 g ai/ha) | Plant response rating (scale 0 to 100), Foxtail, Giant ([14]; 16 g ai/ha)
30: Velvetleaf plant response rating [1, 18] | Plant response rating (scale 0 to 100), Ragweed ([3]; 16 g ai/ha)
40: Soybean plant response rating (soybean (Glycine max); [17]) | Plant response rating, Foxtail, Giant ([14]; 125 g ai/ha) | Plant response rating (scale 0 to 100), Galium ([16]; 16 g ai/ha)
85: Plant response rating (scale 0 to 100), Pigweed ([4]; 16 g ai/ha) | Pigweed plant response rating [4, 17] | Pigweed plant response rating [4, 18] | Plant response rating, Lambsquarters [13, 19] | Waterhemp plant response rating [15, 18] | Plant response rating, Waterhemp [15, 19]
98: Plant response rating, Oilseed Rape [8, 19]
50: Oilseed Rape plant response rating [8, 18] | Galium plant response rating [16, 17]
80: Plant response rating, Morningglory [6, 19] | Lambsquarters plant response rating [13, 18]
35: Morningglory plant response rating [6, 17] | Morningglory plant response rating [6, 18] | Plant response rating (scale 0 to 100), Soybean (soybean (Glycine max); 16 g ai/ha)
